Experimental data taken from patent publication US8039482B2, “Composition of solifenacin or salt thereof for use in solid formulation” (Astellas Pharma Inc., priority 2004, dated 2011).
Where two headings read alike, the source gives them in different places.

Columns and labels:
[1] = type: physicochemical; conditions: for related substances (individual maximum values): 40° C. and 75% RH
Description: The amounts of degradation products over time under storage were measured by high-performance liquid chromatography. The maximum amount of the individual degradation products is shown. […] Therefore, the main cause of the degradation of the active pharmaceutical ingredient over time was presumably amorphous solifenacin succinate generated in the manufacturing process of the formulation.
Results of the stability of crystalline product and amorphous product of solifenacin succinate • Storage conditions: 40° C. and 75% RH • Packaging form: glass vial • Test items: related substances (individual maximum values)

muscarine M3 receptors = muscarine M3 receptors (Homo sapiens, UniProt P20309); conditions: reported in patent reference 1; cited from earlier work
Chain of muscarine M3 receptors (P20309 whole entry): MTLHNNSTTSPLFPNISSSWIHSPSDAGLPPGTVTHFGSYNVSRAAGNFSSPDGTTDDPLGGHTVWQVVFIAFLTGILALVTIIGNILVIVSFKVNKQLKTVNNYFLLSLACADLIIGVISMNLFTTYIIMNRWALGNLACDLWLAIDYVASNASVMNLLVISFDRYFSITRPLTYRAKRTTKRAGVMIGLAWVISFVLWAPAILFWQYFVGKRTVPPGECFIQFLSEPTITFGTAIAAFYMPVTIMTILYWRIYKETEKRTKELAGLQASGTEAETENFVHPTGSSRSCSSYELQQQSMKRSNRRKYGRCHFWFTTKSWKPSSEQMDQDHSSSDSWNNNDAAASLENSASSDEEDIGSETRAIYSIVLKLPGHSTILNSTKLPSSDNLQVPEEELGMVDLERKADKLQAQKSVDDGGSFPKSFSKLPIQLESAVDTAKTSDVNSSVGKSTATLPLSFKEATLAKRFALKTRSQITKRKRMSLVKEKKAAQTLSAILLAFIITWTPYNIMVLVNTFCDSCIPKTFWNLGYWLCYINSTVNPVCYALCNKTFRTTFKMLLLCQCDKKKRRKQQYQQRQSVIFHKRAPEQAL

Compound	stability under storage (in words) [1]	related substances (individual maximum values) ([1]; Open glass vial, one-week later)	related substances (individual maximum values) ([1]; Open glass vial, two-week later)	related substances (individual maximum values) ([1]; Sealed glass vial, one-week later)	related substances (individual maximum values) ([1]; Sealed glass vial, two-week later)	antagonistic action against muscarine M3 receptors (in words) (muscarine M3 receptors)
O=C(O[C@H]1CN2CCC1CC2)N1CCc2ccccc2[C@@H]1c1ccccc1 [Amorphous product, solifenacin succinate]	poorer than that of the crystalline product	0.16%	0.16%	0.03%	0.05%	–
O=C(O[C@H]1CN2CCC1CC2)N1CCc2ccccc2[C@@H]1c1ccccc1 [solifenacin, (1R,3′R)-3′-quinuclidinyl 1-phenyl-1,2,3,4-tetrahydro-2-isoquinoline carboxylate]	–	–	–	–	–	excellent selective antagonistic action
